# Experimental data: article PMC12699035, “Exploring market-approved azoles as potential breast cancer therapeutics targeting the VEGFR-2 biotarget” (Scientific Reports, 2025)
# Like-named read-outs stand apart in the source and are kept apart here.
# Experiments:
# [1] = test system: Solid Ehrlich Carcinoma (SEC); assay: In vivo anti-tumor activity in solid Ehrlich carcinoma (SEC)-bearing mice (tumor mass, volume, TIR%, hematology, histopathology)
# Procedure: All experimental protocols were approved by the Research Ethics Committee and Institutional Animal Care and Use Committee, Faculty of Science, Suez Canal University with the ethical code (SCU-Sci-REC439/2025), and all methods were carried out according to the European Union guidelines and in accordance with ARRIVE guidelines. All animals were anesthetized using a combination of Xylazine 10 mg/kg- Ketamine 100 mg/kg of body weight, respectively, prior sacrifice via cervical decapitation.
# In all graphs, treatments were administrated intraperitoneal (IP) with 6 mg/Kg B.Wt. for two weeks, day after day.
# (§1) SIT, FLU and TNZ were tested using the five dose sigmoidal curves to determine the IC50 values. They were tested for the VEGFR2 inhibition using VEGFR2 Kinase Inhibition Assay Kit Catalog # 40325 BPS Bioscience, San Diego, CA. […] At the end of these experiment, anti-tumor potentiality was recorded using tumor weight (mg), tumor volume (mm^3), and the tumor inhibition ratio (TIR%). Hematological parameters of Hemoglobin (Hb, g/dL), RBC’s count (10^6/μL), and WBC’s count (10^3/μL) were investigated, along with histopathological and immunohistochemical staining of the VEGR2 protein.
# Adult female Swiss albino mice purchased from Faculty of Pharmacy, Suez Canal University, Ismailia, Egypt, with an average body weight of (18-23) g was used. Mice were housed under constant conditions of 12 h light/dark cycle in a […], with free access to standard laboratory mice food and water. All procedures related to care and maintenance of the animals were performed according to the international guiding principles for animal research and approved by the Faculty of Pharmacy, Suez Canal University bioethics and animal ethics committee.
# Solid Ehrlich carcinoma (SEC) was got from the National Cancer Institute (Cairo University, Egypt). The tumor cell line proliferated in mice through serial intraperitoneal (I.P.) transplantation of a volume of 0.2 mL physiological saline containing 1×10^6 viable cells for 24 h. SEC cells were collected 7 days after I.P. implantation. The harvested cells were diluted with saline to obtain a concentration of 5×10^6 viable SEC cells/mL. A volume of 0.2 mL saline contains 1×10^6 SEC cells that were I.P. implanted into each normal mouse. SEC cells (1×10^6 tumor cells/mouse) were implanted subcutaneously into the right thigh of the hind limb.
# The experimental animals were randomly divided into four groups. Group 1 served as the normal saline control. Group 2 served as the SEC control (1×10^6 cells/mouse). Group 3 served as the ITR-treated group (6 mg/kg B.Wt., I.P.). […] Body weight and survival were recorded daily until the 24th day in both treated and control groups. At the end of the experiment, anesthetized animals were then sacrificed for evaluation of the antitumor activity and histopathological examination.
# It includes tumor volume, weight, and tumor inhibition ratio (TIR%). Time interval measurements of tumor volume using a digital Vernier caliper (Tricle Brand, Shanghai, China). Measure tumor length and width using a clipper and then calculate tumor volume using formulations V = (L x W x W)/2, where V is tumor volume, W is tumor width, L is tumor length. While TIR% was calculated according to the following equation Tumor volume Control-Tumor volume (treated)Tumor volume (control)x 100.
# Specimens of liver-sacrificed mice were fixed in 10% saline formalin. The fixed liver specimens were Dehydrated in ascending series of ethyl alcohol and embedded in paraffin.
# [2] = test system: MCF-10A cells; assay: Cytotoxicity against MCF-10A cells, MTT assay (five doses); assay type: cell-based; conditions: Homo sapiens, MCF-10A normal cells, five dose concentrations, n = 3, read-out: MCF-10A IC50 ± SD
# [3] = test system: MCF-7 cells; assay: Cytotoxicity against MCF-7 cells, MTT assay (single dose and five doses)
# [4] = molecular target: T1, VEGFR-2 (Homo sapiens, UniProt P35968); assay: VEGFR-2 kinase inhibition, luminescent VEGFR2 (KDR) kinase assay kit (BPS Bioscience # 40325); assay type: biochemical
# T1 construct: purchased BPS Bioscience 40325
# Procedure: Functionally, this pathway operates in autocrine and intracrine modes to promote cell proliferation, survival, and resistance to apoptosis through downstream effectors such as PI3K/AKT and p38 MAPK.
# as §1, with “values.” for “values. They were tested for the VEGFR2 inhibition using VEGFR2 Kinase Inhibition Assay Kit Catalog # 40325 BPS Bioscience, San Diego, CA.”
# Compounds Itraconazole. […] [12].
# T1 sequence (P35968 20-1356): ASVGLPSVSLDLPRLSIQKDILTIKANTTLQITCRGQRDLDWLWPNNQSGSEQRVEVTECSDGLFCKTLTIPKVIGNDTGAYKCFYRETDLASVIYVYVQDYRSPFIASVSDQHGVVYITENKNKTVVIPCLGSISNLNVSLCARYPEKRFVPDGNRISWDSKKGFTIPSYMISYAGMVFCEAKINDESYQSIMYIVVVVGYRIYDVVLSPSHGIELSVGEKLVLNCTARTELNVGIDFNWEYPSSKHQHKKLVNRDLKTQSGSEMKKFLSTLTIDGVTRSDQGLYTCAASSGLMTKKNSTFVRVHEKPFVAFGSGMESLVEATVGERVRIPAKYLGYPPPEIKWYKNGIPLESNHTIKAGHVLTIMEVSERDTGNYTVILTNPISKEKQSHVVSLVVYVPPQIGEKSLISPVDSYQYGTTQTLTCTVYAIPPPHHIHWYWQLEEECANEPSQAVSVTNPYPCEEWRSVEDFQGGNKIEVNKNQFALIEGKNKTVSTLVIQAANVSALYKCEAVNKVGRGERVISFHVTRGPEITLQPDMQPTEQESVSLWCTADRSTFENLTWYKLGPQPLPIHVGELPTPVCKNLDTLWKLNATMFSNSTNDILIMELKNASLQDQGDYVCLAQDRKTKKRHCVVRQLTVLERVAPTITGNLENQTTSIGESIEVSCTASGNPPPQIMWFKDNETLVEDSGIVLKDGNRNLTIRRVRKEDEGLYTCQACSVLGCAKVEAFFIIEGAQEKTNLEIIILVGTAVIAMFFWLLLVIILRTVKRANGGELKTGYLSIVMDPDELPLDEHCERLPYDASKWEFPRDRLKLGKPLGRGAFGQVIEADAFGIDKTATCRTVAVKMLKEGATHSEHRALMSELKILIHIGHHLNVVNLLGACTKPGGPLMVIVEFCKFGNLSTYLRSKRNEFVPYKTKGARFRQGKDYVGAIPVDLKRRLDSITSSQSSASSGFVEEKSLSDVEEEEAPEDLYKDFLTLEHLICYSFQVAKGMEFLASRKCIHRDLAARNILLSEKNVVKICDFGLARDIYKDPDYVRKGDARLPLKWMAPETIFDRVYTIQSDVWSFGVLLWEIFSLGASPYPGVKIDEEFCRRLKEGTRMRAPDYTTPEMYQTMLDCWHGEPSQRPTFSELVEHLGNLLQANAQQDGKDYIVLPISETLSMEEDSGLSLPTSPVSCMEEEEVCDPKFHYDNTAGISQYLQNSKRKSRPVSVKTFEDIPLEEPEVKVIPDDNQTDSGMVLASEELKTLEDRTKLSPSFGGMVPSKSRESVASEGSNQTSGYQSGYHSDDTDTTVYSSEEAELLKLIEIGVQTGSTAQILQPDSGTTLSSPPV
compound,measurement,setting,value
"CCC(C)n1ncn(-c2ccc(N3CCN(c4ccc(OCC5COC(Cn6cncn6)(c6ccc(Cl)cc6Cl)O5)cc4)CC3)cc2)c1=O (stereo not shown) [Itraconazole, itraconazole]",solid tumor mass,"[1]; 6 mg/Kg B.Wt. IP, two weeks, day after day, SEC control 469 mg",237 mg
same,tumor volume,"[1]; 6 mg/Kg B.Wt. IP, two weeks, day after day, SEC control 420 mm^3",221 mm^3
same,Tumor inhibition ratio (TIR%),"[1]; 6 mg/Kg B.Wt. IP, two weeks, day after day, TIR% = C − T/C × 100",47.4%
same,WBC's count,"[1]; 6 mg/Kg IP, normal 5, SEC control 9.2",6.7 10^3/µL
same,RBC's count,"[1]; 6 mg/Kg IP, normal 6.9, SEC control 3.1",5.1 10^6/µL
same,Hemoglobin level,"[1]; 6 mg/Kg IP, normal 11.6, SEC control 4.6",6.8 g/dL
same,Tumor cell density (histopathology of SEC mass),"[1]; isolated tumor mass, SEC control 2.2 cm^2",1.2 cm^2
same,IC50,[2],49.6 ± 2.5 µM
same,viability at 100 µg/mL,"[3]; Homo sapiens, MCF7, read-out: Average viability%",69.5%
same,IC50,"[3]; Homo sapiens, MCF7, read-out: MCF-7 IC50 ± SD, MCF-7, five dose concentrations, MTT, n = 3",25.7 ± 0.9 µM
same,viability at 100 µg/mL,"[3]; Homo sapiens, MCF7, read-out: Viability (%) 1",70.8%
same,viability at 100 µg/mL,"[3]; Homo sapiens, MCF7, read-out: Viability (%) 2",70.1%
same,viability at 100 µg/mL,"[3]; Homo sapiens, MCF7, read-out: Viability (%) 3",67.7%
same,Average OD,"[3]; MCF-7, single dose 100 μg/mL, MTT optical density, average of triplicates",2.24
same,OD1,"[3]; MCF-7, single dose 100 μg/mL, MTT optical density, replicate 1",2.28
same,OD2,"[3]; MCF-7, single dose 100 μg/mL, MTT optical density, replicate 2",2.26
same,OD3,"[3]; MCF-7, single dose 100 μg/mL, MTT optical density, replicate 3",2.18
same,VEGFR-2 enzyme inhibition LogIC50 (Fig. 3),"[4]; dose-response curve fit, unit not given",1.515
same,IC50,"[4]; enzyme inhibition, dose-response, non-linear regression, read-out: VEGFR-2 inhibition IC50",32.7 µM
